PMC8764033, “Single-molecule analysis of specificity and multivalency in binding of short linear substrate motifs to the APC/C” (Nature Communications, 2022)
Several values for one entry are separate records, joined by “and”; a condition that tells them apart may be missing. Identical values can stand only once. Entries after “also recorded” stand apart in the source; their conditions may differ. Where a SMILES comes first, the peptide text is derived from it.

Key:
[1] = molecular target: T1, hCdc20^WD40 (Homo sapiens, UniProt Q12834); assay: SMOR assay, human Cdc20 WD40; type: binding; conditions: for Dwell Time: Clb5: Not 3x shutter speed
T1 construct: human Cdc20 (aa 162–484; pNH188); made in house; host or cells: Sf9 insect cells (baculovirus)
T1 sequence (Q12834 162-484): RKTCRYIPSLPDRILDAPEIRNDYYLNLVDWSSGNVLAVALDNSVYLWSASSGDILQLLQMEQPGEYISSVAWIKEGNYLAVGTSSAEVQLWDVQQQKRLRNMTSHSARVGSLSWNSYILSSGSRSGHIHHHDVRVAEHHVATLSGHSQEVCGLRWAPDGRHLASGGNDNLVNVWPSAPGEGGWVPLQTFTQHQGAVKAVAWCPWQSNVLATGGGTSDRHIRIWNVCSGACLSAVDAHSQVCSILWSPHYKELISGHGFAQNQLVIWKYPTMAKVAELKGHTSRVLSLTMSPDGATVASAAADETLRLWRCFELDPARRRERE
Description: Activators were cloned into the pFastBac HT A vector, with an N-terminal 2xStrep-Tag II. For some experiments, we constructed vectors for expression of the WD40 domains of yeast Cdh1 (aa 241–550; pNH144), human Cdh1 (aa 165–484; pNH164), or human Cdc20 (aa 162–484; pNH188). For SMOR, a C-terminal GFP tag was added. Bacmid plasmids are listed in Supplementary Table 3. Plasmids were transformed into DH10Bac cells, and purified Bacmid was used to transfect Sf9 cells to generate P1 baculovirus, which was used to generate P2 virus. SF9 cells were infected with the P2 virus for 48 h. Flash-frozen pellets were lysed by sonication or high-pressure homogenization in lysis buffer B (50 mM Tris-HCl pH 8, 150 mM KCl, 0.5 mM EDTA, 1 mM DTT, 10% Glycerol, EDTA-free protease inhibitor tablet, 1 µg ml^−1 pepstatin A). After the lysate was applied to the StrepTrap column, the column was washed with wash buffer B (lysis buffer B lacking protease inhibitors) and eluted in the same buffer containing 2.5 mM desthiobiotin.
(§1) For all SMOR experiments, 24 × 50 mm high precision glass coverslips (Bioscience Tools) and drilled microscope slides were passivated with a combination of PEG and PEG-biotin (coverslips) or PEG only (slides) following a previously published protocol for SiMPull[31]. Reaction chambers (~20 µl) were created using double-sided tape and epoxy. Protein was immobilized on the surface with 0.2 mg ml^−1 NeutrAvidin in buffer C (20 mM HEPES pH 7.5, 150 mM KCl, 10% glycerol, 0.05% Tween-20, 1 mM DTT). Excess NeutrAvidin was washed away and incubated with either biotin-conjugated mouse monoclonal anti-Strep-Tag II antibody (LSBio, Cat. No. LS-C203632-100) or biotin-conjugated rabbit polyclonal anti-GFP antibody (Rockland, Cat. No. 600-406-215) diluted in buffer C + BSA (0.1 mg ml^−1; Molecular Biology Grade Bovine Serum Albumin). Activator WD40 and activated APC/C (typically 50 µl containing about 65 ng APC/C, of which only a small fraction is immobilized on the glass) were immobilized using anti-Strep-Tag II, while APC/C alone was immobilized with anti-GFP. SMOR results were similar when performed in the buffer (wash buffer B) used in polarization anisotropy.
(§2) To capture dynamic protein–protein interactions, dye-labeled substrate diluted in buffer C + BSA was added to the chamber containing immobilized proteins. Interactions were imaged by TIRF microscopy as described below. For optimal signal-to-noise ratio, peptide concentration was no greater than 1 nM. Protein substrates included Hsl1 aa 667–872 and a C-terminal HaloTag followed by a TAP tag, and were produced by translation in rabbit reticulocyte lysates using TnT Quick Coupled Transcription/Translation System (Promega) (see Supplementary Table 5 for plasmids). Protein was purified with magnetic IgG beads and labeled on the bead with JF549 or JF646 dye so that unbound dye could be washed away. Purified dye-labeled protein was then cleaved from the beads using TEV protease. Before adding substrate to the reaction chamber, oxygen scavenging reagents were added (10 nM protocatechuate-3,4-dioxygenase, 2.5 mM protocatechuic acid, and 1 mM Trolox)[41]. A detailed description of the SMOR analysis pipeline is found in Supplementary Note 1.
Microscopy was performed with a Nikon Eclipse TE2000-E with Perfect Focus with a 100 × 1.49na oil, Apo TIRF DIC N2, 0.13-0.2, WD0.12 objective. Movies were recorded using the Andor iXon DU-897E-CSO. For visualizing GFP-tagged protein, a 491 nm laser was used with an ET525/50 (Chroma) filter for emission. For visualizing JF549-labeled substrate, a 561 nm laser was used with an ET595/50 (Chroma) filter for emission. For visualizing all Cy5-labeled peptides and JF646-labeled substrates, a 640 nm laser was used with an ET685/70 filter (Chroma) for emission. […]

[2] = molecular target: T2, APC/C^Cdc20 (Saccharomyces cerevisiae, UniProt P26309+P53068); assay: SMOR assay, yeast APC/C^Cdc20; type: binding; conditions: for mean dwell time: representative of two independent experiments, ± SE, ligand ≤1 nM, buffer C + BSA
T2 construct: APC/C was purified from yeast cells; made in house; host or cells: APC/C from S. cerevisiae W303 strain NHY13 (Cdc16-TAP, Apc1-GFP, cdh1 deleted); Cdc20 from Sf9 (baculovirus)
Description: Yeast strains were derivatives of W303 and are listed in Supplementary Table 2. For APC/C purification, we used a strain carrying Cdc16-TAP and lacking Cdh1 (DOM1126); in most experiments, the strain also carried Apc1-GFP (NHY13). Yeast were grown in YPD media to OD600 = 0.8, collected and flash-frozen. Cells were lysed by bead beating in lysis buffer A (50 mM HEPES pH 7.5, 150 mM KCl, 10% glycerol, 0.2% Triton X-100, 63 µM B-glycerophosphate, 48 µM sodium fluoride, 1 µg ml^−1 pepstatin A, 1 µg ml^−1 leupeptin, 1 µg ml^−1 aprotinin, 1 mM PMSF, 1 mM DTT, 0.5 mM EDTA) and APC/C was purified using magnetic IgG beads. The beads were washed using wash buffer A (20 mM HEPES pH 7.5, 150 mM KCl, 10% Glycerol, 0.05% Triton X-100). After incubation with purified Cdh1 or Cdc20, the APC/C was cleaved off the beads with TEV protease in wash buffer A with 0.05% Tween-20 (for single-molecule studies) or 0.05% Triton X-100 (for ensemble assays such as ubiquitylation) and used immediately.
as §1, §2
Microscopy was performed with a Nikon Eclipse TE2000-E with Perfect Focus with a 100 × 1.49na oil, Apo TIRF DIC N2, 0.13-0.2, WD0.12 objective. Movies were recorded using the Andor iXon DU-897E-CSO. For visualizing GFP-tagged protein, a 491 nm laser was used with an ET525/50 (Chroma) filter for emission. For visualizing JF549-labeled substrate, a 561 nm laser was used with an ET595/50 (Chroma) filter for emission. For visualizing all Cy5-labeled peptides and JF646-labeled substrates, a 640 nm laser was used with an ET685/70 filter (Chroma) for emission. Initially, for each substrate tested, we acquired movies at multiple intervals to deduce the optimal interval to decrease bleaching. µManager version 2.0 was used to control the microscope and record time-lapse movies.

[3] = Supplementary Table 1, replicate 1 (movie listed first)
[4] = Supplementary Table 1, replicate 2 (movie listed second)
[5] = Supplementary Table 1, replicate 1
[6] = Supplementary Table 1, replicate 2

CC(C)C[C@H](NC(=O)[C@H](C)NC(=O)[C@H](CCCNC(=N)N)NC(=O)[C@H](CCCNC(=N)N)NC(=O)[C@@H]1CCCN1C(=O)[C@H](CCCCN)NC(=O)[C@H](CO)NC(=O)[C@H](CC(=O)O)NC(=O)[C@@H](N)CCC(N)=O)C(=O)N[C@H](C(=O)N[C@@H](CC(=O)O)C(=O)N[C@H](C(=O)N1CCC[C@H]1C(=O)N[C@H](C(=O)N[C@@H](CC(N)=O)C(=O)N[C@@H](CC(N)=O)C(=O)N[C@@H](CC(N)=O)C(=O)N1CCC[C@H]1C(=O)N[C@@H](CC(C)C)C(=O)N[C@@H](CO)C(=O)N[C@@H](CCC(N)=O)C(=O)N[C@@H](CCCCN)C(=O)O)C(C)C)C(C)C)[C@@H](C)O [Clb5 D box] (H-QDSKPRRALTDVPVNNNPLSQK-OH; N-terminus and C-terminus assumed)
Dwell Time [1, 3]: 0.054 ± 0.001 s
Dwell Time [1, 4]: 0.058 ± 0.001 s
mean dwell time ([1]; less than three times the frame rate, therefore less reliable (footnote a)): 0.054 s^a
Dwell Time [2, 3]: 0.179 ± 0.008 s
Dwell Time [2, 4]: 0.207 ± 0.008 s
mean dwell time [2]: 0.207 ± 0.008 s and 0.207 s

CC[C@H](C)[C@H](NC(=O)[C@H](CC(=O)O)NC(=O)[C@H](CO)NC(=O)[C@H](C)NC(=O)[C@H](C)NC(=O)[C@H](C)NC(=O)[C@H](C)NC(=O)[C@H](CCCCN)NC(=O)[C@@H]1CCCN1C(=O)[C@H](CCCCN)NC(=O)[C@H](CCC(N)=O)NC(=O)[C@@H](N)CCC(=O)O)C(=O)N[C@H](C(=O)N[C@@H](C)C(=O)N[C@@H](CO)C(=O)N[C@@H](Cc1ccccc1)C(=O)N[C@@H](CC(N)=O)C(=O)N[C@@H](CCCCN)C(=O)N[C@@H](CCSC)C(=O)N[C@@H](CC(N)=O)C(=O)N[C@@H](CCCCN)C(=O)O)[C@@H](C)O [Hsl1 D box mutant] (H-EQKPKAAAASDITASFNKMNK-OH; N-terminus and C-terminus assumed)
binding (in words) [1]: No binding
Dwell Time (in words) [1, 5]: no binding
binding (in words) [2]: No binding
Dwell Time (in words) [2, 5]: no binding
Dwell Time (in words) [2, 6]: no binding

CC[C@H](C)[C@H](NC(=O)[C@H](Cc1ccccc1)NC(=O)[C@H](CO)NC(=O)[C@H](CCCCN)NC(=O)[C@H](CO)NC(=O)[C@H](CCCNC(=N)N)NC(=O)[C@H](CC(N)=O)NC(=O)[C@H](CC(N)=O)NC(=O)[C@H](CC(=O)O)NC(=O)[C@H](CCCCN)NC(=O)[C@H](C)NC(=O)[C@H](C)NC(=O)[C@H](CC(C)C)NC(=O)[C@@H]1CCCN1C(=O)[C@H](CC(C)C)NC(=O)[C@H](CCCNC(=N)N)NC(=O)CNC(=O)[C@H](CCC(N)=O)NC(=O)[C@H](CCC(N)=O)NC(=O)[C@H](CCC(N)=O)NC(=O)[C@H](C)N)C(=O)N[C@@H](CCCCN)C(=O)O [ySecurin D box] (H-AQQQGRLPLAAKDNNRSKSFIK-OH; N-terminus and C-terminus assumed)
Dwell Time (in words) [1, 5]: single frame
Dwell Time (in words) [1, 6]: single frame
Dwell Time [2, 3]: 1.859 ± 0.041 s
Dwell Time [2, 4]: 1.870 ± 0.035 s
mean dwell time [2]: 1.87 ± 0.04 s and 1.87 s
fold higher affinity for APC/C^Cdc20 ([2]; vs APC/C^Cdh1): 15 fold

LIYVDKENGEPGTR-K(Cy5) [hSecurin KEN, Cy5-labeled KEN box peptide of human securin/Pttg1]
binding (in words) [1]: did not bind human Cdc20^WD40; also recorded: No binding
Dwell Time (in words) [1, 5]: no binding
Dwell Time (in words) [1, 6]: no binding
binding (in words) [2]: No binding
Dwell Time (in words) [2, 5]: no binding
Dwell Time (in words) [2, 6]: no binding

LPKATRKALGTVNRATEKSVK-K(Cy5) [AurKB D box, Cy5-labeled D box peptide of Aurora B kinase]
binding (in words) [1]: single-frame interactions only
Dwell Time (in words) [1, 5]: single frame
Dwell Time (in words) [1, 6]: single frame
binding (in words) [2]: No binding
Dwell Time (in words) [2, 5]: no binding
Dwell Time (in words) [2, 6]: no binding

SKAAQFMLYEETAEERNI-K(Cy5) [Acm1 ABBA, Cy5-labeled Cdh1-specific ABBA motif from pseudosubstrate yeast protein Acm1]
binding (in words) [1]: No binding
Dwell Time (in words) [1, 5]: no binding
Dwell Time (in words) [1, 6]: no binding
binding (in words) [2]: No binding
Dwell Time (in words) [2, 5]: no binding
Dwell Time (in words) [2, 6]: no binding
